Source: publication PMC3724348 (Biochemistry, 2013)
Entries after “also recorded” stand apart in the source; their conditions may differ.

Columns and labels:
HL-60 cells [1] = assay: HL60 differentiation assay; assay type: cell-based, human; conditions: 4 days, 1,25(OH)2D3 alone
[2] = test system: VDR target genes IGFBP-3, TRPV6 and CYP24A1 in LNCaP cells; assay: Semi-quantitative real time PCR, VDR target genes in LNCaP cells; assay type: cell-based, human
[3] = test system: AR target genes UGT1A1 and PSA in LNCaP cells; assay: Semi-quantitative real time PCR, AR target genes in LNCaP cells; assay type: cell-based, human; conditions: 18 h
PPARγ [4] = conditions: HTS campaign; ref AID588537, pubchem; cited from earlier work
[5] = test system: PPARγ target gene ANGPTL4 in LNCaP cells; assay: Semi-quantitative real time PCR, PPARγ target gene in LNCaP cells; assay type: cell-based, human; conditions: 18 h
HEK 293T cells = assay: Cell viability; assay type: cell-based, human; conditions: GW0742 18.7 µM; CellTiter-Glo
Cell viability = assay type: cell-based, human; conditions: human
PPARγ [6] = target: PPARγ (Homo sapiens, UniProt P37231); assay: One-hybrid luciferase transcription assay in HEK 293T cells; assay type: cell-based
[7] = target: interaction between VDR and SRC2–3 (Homo sapiens, UniProt P11473, DEL165-215); assay: HTS FP assay, VDR–SRC2–3 inhibition; assay type: binding; conditions: HTS campaign; Texas Red-labeled SRC2–3
[8] = test system: TR target gene BTG2 in LNCaP cells; assay: Semi-quantitative real time PCR, TR target gene in LNCaP cells; assay type: cell-based, human; conditions: 18 h
VDR = VDR (Homo sapiens, UniProt P11473); assay: VDR ligand competition FP assay; assay type: binding; conditions: with respect to 100% free probe (55 mP) measured in the absence of VDR
[9] = test system: ANGPTL4 in HT29 colon cancer cells; conditions: GW0742 1 µM; cited from earlier work
HL-60 cells [10] = assay: HL-60 cell death in differentiation assay; assay type: cell-based, human; conditions: 4 days
TRβ–SRC2–2 interaction = TRβ–SRC2–2 interaction (Homo sapiens, UniProt P10828); assay: FP assay TRβ–SRC2–2 inhibition; assay type: binding
Sequence of TRβ–SRC2–2 interaction (P10828 217-461 limits assumed): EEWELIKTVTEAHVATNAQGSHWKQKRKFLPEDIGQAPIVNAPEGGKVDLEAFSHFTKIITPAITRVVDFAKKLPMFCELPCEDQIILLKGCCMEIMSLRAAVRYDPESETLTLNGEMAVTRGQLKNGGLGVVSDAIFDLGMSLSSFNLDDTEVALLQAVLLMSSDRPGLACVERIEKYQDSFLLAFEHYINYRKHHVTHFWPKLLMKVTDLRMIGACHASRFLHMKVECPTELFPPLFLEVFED

HEK293T cells = assay: Toxicity in HEK293T cells; conditions: at a concentration of 45.8 µM; AID:602204
[11] = target: VDR-SRC2–3 Alexa Fluor 647 interaction (Homo sapiens, UniProt P11473, DEL165-215); assay: VDR–SRC2–3 FP assay in the presence of 1 mM or 100 mM 2-mercaptoethanol; assay type: binding; conditions: small molecules 50 µM; Alexa Fluor 647 SRC2–3
estrogen receptor α = conditions: HTS campaign; ref AID:588513, pubchem; cited from earlier work
SRC2 = assay: Isothermal titration calorimetry GW0742–SRC2; assay type: binding
glucocorticoid receptor = conditions: HTS campaign; ref AID:588533, pubchem; cited from earlier work
retinoid X receptor = conditions: HTS campaign; ref AID:588546, pubchem; cited from earlier work
TRβ = conditions: HTS campaign; ref AID:588547, pubchem; cited from earlier work
PPARγ–DRIP2 interaction = target: T1, PPARγ–DRIP2 interaction (Homo sapiens, UniProt P37231); assay: FP assay PPARγ–DRIP2; assay type: binding
T1 sequence (P37231 238-503 limits assumed): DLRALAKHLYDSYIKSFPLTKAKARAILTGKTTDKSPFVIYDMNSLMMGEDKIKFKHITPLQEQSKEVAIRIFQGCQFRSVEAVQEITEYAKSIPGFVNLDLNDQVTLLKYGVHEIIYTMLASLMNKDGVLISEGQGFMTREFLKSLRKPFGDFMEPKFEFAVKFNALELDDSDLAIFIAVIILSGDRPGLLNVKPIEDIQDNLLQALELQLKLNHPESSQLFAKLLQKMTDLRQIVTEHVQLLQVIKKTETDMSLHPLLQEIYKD

VDR–SRC2 interaction = VDR–SRC2 interaction (Homo sapiens, UniProt P11473, DEL165-215); assay: Western pull-down assay VDR-LBD and SRC2 bearing all three NIDs; assay type: binding
[12] = GW0742 20 µM + 1,25(OH)2D3 10 nM, 18 h

C=C1/C(=C\C=C2/CCC[C@]3(C)[C@@H]([C@H](C)CCCC(C)(C)O)CC[C@@H]23)C[C@@H](O)C[C@@H]1O [1,25(OH)2D3, 1,25-dihydroxyvitamin D3]
HL-60 cell differentiation (HL-60 cells [1]): strong | CYP24A1 expression ([2]; 1,25(OH)2D3 10 nM, 6 hours and 18 hours): induction; also recorded: moderately upregulated | IGFBP-3 expression ([2]; 1,25(OH)2D3 10 nM, 18 h): strongly induced | TRPV6 expression ([2]; 1,25(OH)2D3 10 nM, 18 h): strongly induced

C[C@]12CCC(=O)C[C@@H]1CC[C@@H]1[C@@H]2CC[C@]2(C)[C@@H](O)CC[C@@H]12 [DHT, dihydrotestosterone]
UGT1A1 expression ([3]; DHT 10 nM): upregulated

Cc1cc(SCc2sc(-c3ccc(C(F)(F)F)c(F)c3)nc2C)ccc1OCC(=O)O [GW0742]
antagonistic activity PPARγ (PPARγ [4]): Antagonistic activity | effect on rosiglitazone-induced ANGPTL4 expression ([5]; GW0742 20 µM + rosiglitazone 5 µM): unaffected; also recorded: inconclusive | toxicity (HEK 293T cells): no toxicity was observed | viability at 16 h, 37.5 µM (Cell viability): 93 ± 3% | concentration with significant PPARγ-mediated transcriptional inhibition (PPARγ [6]): > 20 µM | effect on DHT-induced PSA expression ([3]; GW0742 20 µM + DHT 10 nM): significant inhibitory effect | effect on DHT-induced UGT1A1 expression ([3]; GW0742 20 µM + DHT 10 nM): significant inhibitory effect | VDR–SRC2–3 inhibition (FP assay) IC50 [7]: inconclusive | effect on T3-mediated down-regulation of BTG2 ([8]; GW0742 20 µM + T3 10 nM): reversed | extent of inhibition of VDR–ligand binding (VDR): partial inhibition | ANGPTL4 activation [9]: activation | concentration with significant HL-60 cell death (HL-60 cells [10]): 150 µM | IC50 (TRβ–SRC2–2 interaction): 59.9 ± 9.5 µM | cell death (HEK293T cells): 18% | inhibition of VDR–SRC2–3 interaction at 100 mM ME in comparison with 1 mM ME [11]: not influenced | antagonistic activity ERα (estrogen receptor α): Antagonistic activity | interaction between GW0742 and SRC2 (ITC) (SRC2): no specific interaction was observed | antagonistic activity GR (glucocorticoid receptor): Antagonistic activity | antagonistic activity RxR (retinoid X receptor): Antagonistic activity | effect on 1,25(OH)2D3-induced IGFBP-3 expression [2, 12]: selectively inhibited | effect on 1,25(OH)2D3-induced TRPV6 expression [2, 12]: selectively inhibited | effect on 1,25(OH)2D3-induced CYP24A1 expression ([2]; only at 6 hours and 50 µM GW0742 + 1,25(OH)2D3 10 nM): significant inhibition | antagonistic activity TRβ (TRβ): Antagonistic activity | EC50 (PPARγ–DRIP2 interaction): 2.6 µM | IC50 (PPARγ–DRIP2 interaction): > 86 µM | concentration with significant inhibition between PPARγ-LBD and DRIP2 (PPARγ–DRIP2 interaction; FP assay): > 86 µM | inhibition of the VDR–SRC2 interaction (pull-down) (VDR–SRC2 interaction; in the presence of VDR ligand): blocked in a dose dependent manner | concentration with significant inhibition of the VDR–SRC2 interaction (VDR–SRC2 interaction; residual bands still detected): 80 to 120 µM

CN(CCOc1ccc(CC2SC(=O)NC2=O)cc1)c1ccccn1 (centres unmarked) [Rosiglitazone]
ANGPTL4 expression ([5]; rosiglitazone 5 µM): induced

N[C@@H](Cc1cc(I)c(Oc2ccc(O)c(I)c2)c(I)c1)C(=O)O [T3, triiodothyronine]
BTG2 expression ([8]; T3 10 nM): down-regulated
